Assay results reported in patent publication US4316889A, “Novel peptidyl-arginine aldehyde derivatives and process for the preparation thereof” (Richter Gedeon Vegyeszeti Gyar Rt., priority 1979, dated 1982).
Square brackets hold non-standard residues; d marks the D form. Peptide text beside a SMILES is read from it. * marks the point of attachment. d(aIle) = CC[C@H](C)[C@@H](N)C(=O)O; Bz = O=C(c1ccccc1)*

What was measured:
[1] = target: T1, US Standard Human Thrombin (Homo sapiens, UniProt P00734); test: Antithrombin activity: amount of drug for tenfold increase of the thrombin-time of fibrinogen; format: biochemical; conditions: for Amount of drug required for tenfold increase of thrombin-time following dissolution of peptide, 0 hour: 0 hour after dissolution in TRIS/HCl buffer pH=7.4, bovine fibrinogen, thrombin 5 U/ml; for relative activity (ra), 20 hours: 20 hours in TRIS/HCl buffer, relative to H-D-Phe-Pro-Arg(COOH)-H at 0 hour = 100; for Amount of drug required for tenfold increase of thrombin-time following dissolution of peptide, 20 hours: 20 hours standing in TRIS/HCl buffer pH=7.4; for change of antithrombin potency upon standing in solution: TRIS/HCl buffer, pH=7.4
T1 construct: US Standard Human Thrombin; purchased NIH, Bethesda, Maryland, USA
Method: Antithrombin activity is defined by the amount of drug required for a tenfold increase of the thrombin-time of fibrinogen (thrombintime: time of clotting induced by thrombin).
Antithrombin activities were assayed in the following system:
0.5 percent bovine fibrinogen (0.2 ml). in 0.9 percent sodium chloride solution, peptide in TRIS/HCl buffer (0.1 ml., pH=7.4), and US Standard Human Thrombin (0.1 ml.) (NIH, Bethesda, Maryland, USA; 5 U/ml.). The clotting time of the system devoid of peptide is 15 seconds.

thrombin-time = test: In vivo antithrombin activity after oral administration to dogs, measured in a Thromboelastograph; design: species or system dog; conditions: 50 mg./kg., for a period of two hours
Description: (§1) This effect is substantial not only at intravenous, intramuscular and subcutaneous but also at oral administration.

thrombin [2] = target: thrombin (Homo sapiens, UniProt P00734); conditions: Hungarian Patent No. 169,870; cited from earlier work
plasmin = plasmin (Homo sapiens, UniProt P00747); conditions: literature (Kawamura et al.; Umezawa); cited from earlier work
trypsin = conditions: literature (Kawamura et al.; Umezawa); cited from earlier work
papain = target: T2, papain (Carica papaya, UniProt P00784); conditions: literature (Kawamura et al.; Umezawa); cited from earlier work
T2 sequence (P00784 134-345): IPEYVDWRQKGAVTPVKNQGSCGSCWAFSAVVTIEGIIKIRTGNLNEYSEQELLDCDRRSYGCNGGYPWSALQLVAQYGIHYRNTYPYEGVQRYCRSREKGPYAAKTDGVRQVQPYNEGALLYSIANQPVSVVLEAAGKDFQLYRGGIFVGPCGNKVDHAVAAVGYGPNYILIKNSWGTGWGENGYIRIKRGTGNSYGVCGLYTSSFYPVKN

thrombin [3] = test: In vivo trials of antithrombin activity on five species; conditions: mouse, rat, rabbit, dog, monkey; intravenous, intramuscular, subcutaneous and oral administration
Description: as §1

Sequence of plasmin (P00747 581-810 limits assumed, species assumed): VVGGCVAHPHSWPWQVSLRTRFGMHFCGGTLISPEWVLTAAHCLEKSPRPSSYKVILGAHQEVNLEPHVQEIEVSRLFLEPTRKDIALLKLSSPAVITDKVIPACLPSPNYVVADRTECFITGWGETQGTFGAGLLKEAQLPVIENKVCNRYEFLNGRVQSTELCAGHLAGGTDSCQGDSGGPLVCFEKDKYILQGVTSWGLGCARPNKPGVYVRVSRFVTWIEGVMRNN
Sequence of plasmin (P00747 97-580 partner limits assumed, species assumed): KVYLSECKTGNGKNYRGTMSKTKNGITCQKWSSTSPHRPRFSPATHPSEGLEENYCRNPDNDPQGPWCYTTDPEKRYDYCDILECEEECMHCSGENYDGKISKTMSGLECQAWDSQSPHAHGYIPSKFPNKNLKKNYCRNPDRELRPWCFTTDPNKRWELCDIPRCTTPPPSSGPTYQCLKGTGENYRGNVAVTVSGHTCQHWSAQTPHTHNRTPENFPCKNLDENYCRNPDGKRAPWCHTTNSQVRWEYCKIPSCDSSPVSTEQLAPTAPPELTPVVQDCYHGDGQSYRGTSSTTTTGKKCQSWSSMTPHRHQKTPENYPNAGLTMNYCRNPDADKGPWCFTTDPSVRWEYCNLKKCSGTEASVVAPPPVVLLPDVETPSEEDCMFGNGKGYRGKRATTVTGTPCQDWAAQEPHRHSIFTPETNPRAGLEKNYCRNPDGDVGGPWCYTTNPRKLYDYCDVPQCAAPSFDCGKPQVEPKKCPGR

Molecule | Amount of drug required for tenfold increase of thrombin-time following dissolution of peptide, 0 hour [1] | relative activity (ra), 20 hours [1] | Amount of drug required for tenfold increase of thrombin-time following dissolution of peptide, 20 hours [1] | change of antithrombin potency upon standing in solution [1] | increase of thrombin-time in vivo (thrombin-time) | antithrombin activity (literature) (thrombin [2]) | inhibition of plasmin (plasmin) | inhibition of trypsin (trypsin) | inhibition of papain (papain) | also measured
CC(=O)O.N=C(N)NCCC[C@@H](C=O)NC(=O)[C@@H]1CCCN1C(=O)[C@H](N)Cc1ccccc1 [H--D-Phe-- Pro--Arg--H . 2 CH3 COOH, D-phenylalanyl-L-prolyl-L-arginine aldehyde acetate] | 0.37 to 1.25 µg/mL | 4 | 6.2 µg/mL | reduced | practically no influence | marked antithrombin activity |  |  |  | 
Cl.N=C(N)NCCC[C@@H](C=O)NC(=O)[C@@H]1CCCN1C(=O)[C@H](N)Cc1ccccc1 [H--D-Phe-- Pro--Arg--H . 2HCl, D-phenylalanyl-L-prolyl-L-arginine aldehyde hydrochloride] | 0.35 to 0.95 µg/mL | 5 | 6.0 µg/mL | reduced | practically no influence |  |  |  |  | 
CC(=O)N[C@@H](CC(C)C)C(=O)N[C@@H](CC(C)C)C(=O)N[C@H](C=O)CCCNC(=N)N.Cl [acetyl-L-leucyl-L-leucyl-arginine aldehyde hydrochloride] |  |  |  |  |  |  | capable to inhibit | capable to inhibit | capable to inhibit | 
CC[C@H](C)[C@@H](NC(=O)c1ccccc1)C(=O)N1CCC[C@H]1C(=O)N[C@H](C=O)CCCNC(=N)N.Cc1ccc(S(=O)(=O)O)cc1 [benzoyl-D-allo-isoleucyl-L-prolyl-L-arginine aldehyde p-toluenesulfonate] (Bz-[d(aIle)]-Pro-Arg-aldehyde) |  |  |  |  |  | marked antithrombin activity |  |  |  | 
CCC(=O)N[C@@H](CC(C)C)C(=O)N[C@@H](CC(C)C)C(=O)N[C@H](C=O)CCCNC(=N)N.Cl [propionyl-L-leucyl-L-leucyl-arginine aldehyde hydrochloride] |  |  |  |  |  |  | capable to inhibit | capable to inhibit | capable to inhibit | 
D-Phenylalanyl-L-prolyl-N^G -carboxyl-L-arginine aldehyde [H--D-Phe-- Pro--Arg(COOH)--H] | 0.275 µg/mL | 92 | 0.300 µg/mL |  | four to sixfold |  |  |  |  | relative activity (ra), 0 hour ([1]; 0 hour, activity of H-D-Phe-Pro-Arg(COOH)-H arbitrarily taken as 100): 100; antithrombin (enzyme inhibitory) activity compared with the free tripeptide aldehyde salt of corresponding sequence ([1]; thrombin-fibrinogen reaction, versus H-D-Phe-Pro-Arg-H hydrochloride or acetate): higher; in vivo antithrombin effect (thrombin [3]): substantial
